Test results as given in patent US20140271734A1, “BILE ACID RECYCLING INHIBITORS FOR TREATMENT OF BARRETT'S ESOPHAGUS AND GASTROESOPHAGEAL REFLUX DISEASE” (LUMENA PHARMACEUTICALS, INC., priority 2013, published 2014).
Marks after values point to notes of the source that are not given here.

Tests used:
[1] = tested on: serum total bile acid (SBA); assay: Time to onset of activity of LUM001 on postprandial serum bile acids in dogs; format: in vivo, beagle dogs; settings: for Serum bile acids, mean: fed at 0 min
Protocol: LUM001 was dissolved in water at concentrations that required the administration of 0.2 ml/kg of solution. Solutions were placed into gelatin capsules, Torpac Inc., size 13 Batch 594, East Hanover N.J., and administered orally.
Male beagle dogs were obtained from Covance Research Products, Cumberland Va. or Marshall Farms USA, Inc., North Rose N.Y. A total of 20 dogs, 1 to 5 years old, 6.8 to 15.6 kg body weight, were used in these experiments. The dogs were conditioned to a 12 hour light/dark cycle and maintained on a feeding restriction of 1 hour per day access to food (Richman Standard Certified Canine Diet #5007, PMI Nutrition, Inc., St. Louis Mo.) from 7 to 8 AM. They were trained to eat a special meal promptly within 20 minutes when presented (1 can. 397 g, Evanger's 100% Beef for Dogs, Evanger's Dog and Cat Food Co., Inc., Wheeling Ill., mixed with 50 g of sharp cheddar cheese.).
SBA was measured by an enzymatic assay. SBA values are expressed as μg of total bile acids/ml of serum.
To estimate the details of this plateau, 6 dogs were given a test meal and blood samples for SBA measurement were collected at −30, 0, 30, 60, 65, 70, 80, 90, 120, 180, 240, 360, 480, 720, 1410 and 1440 minutes from the time of feeding. Any remaining food was removed 20 min after it was first presented to the dogs. To establish a method for extending the elevated plateau of SBA, 6 dogs were given the meal at 0 hr and an additional ½ size meal again 4 hr after their first meal. Blood samples were taken at 0, 1, 2, 3, 4, 4.5, 6, 7 and 8 hr. The curves for SBA level vs time obtained in these experiments were used as references for determining blood sampling times in experiments with LUM001. Wherever possible, experimental design permitting, in experiments with test compound, each dog served as its own simultaneous control, and the mean 1 hr SBA value served as the reference to which all other mean values were compared.
LUM001 was administered at 0, 0.01, 0.05, 0.2 and 1 mg/kg, p.o. to dogs, n=6, 1 hr after feeding the standard experimental meal. Blood samples for SBA measurement were taken at −30, 0, 30, 60, 65, 70, 80, 90, 120 and 180 minutes from the time of feeding. Each dog served as its own control, and mean SBA levels were compared to the mean SBA level at 60 minutes.

[2] = tested on: fecal bile acids; assay: Fecal bile acid excretion, ascending multiple oral doses of LUM001 in healthy adults; format: in vivo, human
Protocol: This Phase 1 study was a randomized, double-blind, placebo-controlled study of ascending multiple oral doses of LUM001 in healthy, adult subjects. This study was conducted at a single center. There were 13 LUM001 dosing panels: 10, 20, 60, 100, and 20 mg every morning (qAM) (2) (i.e., the regimen was tested a second time in the study), 5 mg every evening (qPM), 0.5, 1, 2.5, 5, 2.5 (2), 5 (2), and 0.5 to 5 mg qAM dose titration. Most of the dosing panels included subjects treated with matching placebo. No subject participated in more than 1 dosing panel. Subjects were randomized into the study by dosing panel, and all subjects within a dosing panel received study medication at approximately the same time each day. Safety was reviewed for each panel before subsequent panels were initiated. A total of 167 subjects were treated for 28 days, 147 with LUM001 and 20 with placebo.
During the Pretreatment Screening Period (Days −31 through −4), subjects were seen on an outpatient basis to determine study eligibility based on enrollment criteria. On Day −3, eligible subjects were admitted to the research facility during the morning. Subjects were confined to the research facility from Days −3 to 30. During the entire period of confinement to the research facility, subjects received a study diet composed of 35% of caloric intake from fat, 15% from protein, and 50% from carbohydrates. The total daily caloric intake (based on the subject's weight) was fixed and divided into 3 equicaloric equal-fat-containing meals. The fixed fat composition and caloric content of the diet was designed to reduce inter- and intra-subject variability of serum total bile acids (SBA) and FBA, lipid parameters, and fat absorption parameters.
On Day 1 of the Treatment Period, subjects who qualified for enrollment were randomized in the order in which they were admitted to the research facility. On the same day, subjects began receiving study medication. Subsequent analyses included clinical and laboratory safety assessments and profiles of PK, PD, and lipid parameters. The safety and tolerability of LUM001 were evaluated by physical examination, ascertainment of adverse signs and symptoms, and clinical laboratory studies. Blood and urine samples were obtained for measurement of LUM001 plasma, whole blood, and urine concentrations for subsequent PK analyses. Efficacy responses included measuring FBA as a surrogate marker for the inhibition of intestinal bile acid transport. For the qAM dosing panels, LUM001 or placebo was administered each day of the treatment period (28 days) immediately prior to the morning meal at approximately 08:00 and after any necessary blood work was drawn.
Fecal samples were collected for all panels except the dose-titration panel, 2.5 (2) and 5 mg (2), on Days 9 through 14 and 23 through 28 (data shown in FIG. 6; *p<0.05; **p<0.01 compared to placebo). Twenty-four hour FBA excretions were quantified by Pharmacia for Days 9 through 14 and 23 through 28. Feces were collected in a 24-hour collection container beginning at 08:00 and ending 24 hours later. This procedure was followed on Days 9 through 14 and 23 through 28, with new collection containers issued for each 24-hour period. The weight of each 24-hour fecal collection was recorded on the CRFs. Specimens were stored in 24-hour containers, frozen at approximately −80° C. prior to analysis.
An aliquot for each 24-hour fecal sample collected on Days 23 through 28 was combined, homogenized, and analyzed for bile acid species concentrations by ANAPHARM. The fecal bile acid species evaluated include chenodeoxycholic acid, cholic acid, deoxycholic acid, and lithocholic acid.

[3] = tested on: total serum bile acids; assay: Plasma total serum bile acids in ZDF rats, week 3; format: in vivo; settings: twice daily oral gavage
[4] = tested on: Alanine Aminotransferase (ALAT); assay: Plasma alanine aminotransferase in ZDF rats, week 3; format: in vivo; settings: twice daily oral gavage

For `CCCCC1(CCCC)CS(=O)(=O)c2ccc(N(C)C)cc2[C@@H](c2ccc(OCc3ccc(C[N+]45CCN(CC4)CC5)cc3)cc2)[C@H]1O` [LUM001], the “Time to significantly lowered SBA levels after dosing” value ([1]; 0.05 mg/kg orally 1 hour after feeding) was 1 to 2 h, the “Serum bile acids, mean” value ([1]; 0.05 mg/kg p.o. at 60 min, 120 min) was 6.5* μg/ml and the “Serum bile acids, mean” value ([1]; 0.05 mg/kg p.o. at 60 min, −30 min) was 1.4 µg/mL. For the same compound, the “Serum bile acids, mean” value ([1]; 0.2 mg/kg p.o. at 60 min, 30 min) was 9.1 µg/mL, the “Onset time to significant SBA lowering” value ([1]; 1 mg/kg vs ED50 dose 0.2 mg/kg) was “did not shorten the onset time” and the “Threshold dose, dog SBA model” value ([1]; administered orally 1 hour after feeding) was 0.05 mg/kg. For the same compound, the “Mean Daily Total Fecal Bile Acids Excretion” value ([2]; 0.5 mg (n=16), Days 9-14) was 266.8 μmole/24 hr, the “Mean Daily Total Fecal Bile Acids Excretion” value ([2]; 0.5 mg (n=16), Days 23-28) was 294.9 μmole/24 hr and the “Mean Daily Total Fecal Bile Acids Excretion” value ([2]; 1.0 mg (n=8), Days 9-14) was 642.7 μmole/24 hr. For the same compound, the “Mean Daily Total Fecal Bile Acids Excretion” value ([2]; 1.0 mg (n=8), Days 23-28) was 780.3 μmole/24 hr, the “Mean Daily Total Fecal Bile Acids Excretion” value ([2]; 2.5 mg (n=8), Days 9-14) was 478.0 μmole/24 hr and the “Mean Daily Total Fecal Bile Acids Excretion” value ([2]; 2.5 mg (n=8), Days 23-28) was 590.7 μmole/24 hr. For the same compound, the “Mean Daily Total Fecal Bile Acids Excretion” value ([2]; 5 mg (n=8), Days 9-14) was 1105.1 μmole/24 hr, the “Mean Daily Total Fecal Bile Acids Excretion” value ([2]; 5 mg (n=8), Days 23-28) was 848.4 μmole/24 hr and the “Mean Daily Total Fecal Bile Acids Excretion” value ([2]; 5 mg qPM (n=15), Days 9-14) was 496.9 μmole/24 hr. For the same compound, the “Mean Daily Total Fecal Bile Acids Excretion” value ([2]; 5 mg qPM (n=15), Days 23-28) was 593.3 μmole/24 hr, the “Mean Daily Total Fecal Bile Acids Excretion” value ([2]; 10 mg (n=8), Days 9-14) was 1237.0 μmole/24 hr and the “Mean Daily Total Fecal Bile Acids Excretion” value ([2]; 10 mg (n=8), Days 23-28) was 1126.0 μmole/24 hr. The “Mean Daily Total Fecal Bile Acids Excretion” value ([2]; 20 mg (n=16), Days 9-14) was 902.9 μmole/24 hr, the “Mean Daily Total Fecal Bile Acids Excretion” value ([2]; 20 mg (n=16), Days 23-28) was 865.2 μmole/24 hr and the “Mean Daily Total Fecal Bile Acids Excretion” value ([2]; 60 mg (n=8), Days 9-14) was 973.4 μmole/24 hr. The “Mean Daily Total Fecal Bile Acids Excretion” value ([2]; 60 mg (n=8), Days 23-28) was 964.5 μmole/24 hr, the “Mean Daily Total Fecal Bile Acids Excretion” value ([2]; 100 mg (n=8), Days 9-14) was 2405.7 μmole/24 hr and the “Mean Daily Total Fecal Bile Acids Excretion” value ([2]; 100 mg (n=8), Days 23-28) was 1718.3 μmole/24 hr. For the same compound, the Fecal Bile Acids ([2]; healthy adults, multiple oral doses, 28 days) was “significant increase in fecal bile acids”.
With `CCCC[C@]1(CC)CS(=O)(=O)c2ccc(N(C)C)cc2[C@@H](c2cccc(NC(=O)N[C@@H]3O[C@H](COS(=O)(=O)[O-])[C@@H](O)[C@H](OCc4ccccc4)[C@H]3O)c2)[C@H]1O.CCO.O.[K+]` [LUM002, potassium((2R,3R,4S,5R,6R)-4-benzyloxy-6-{3-[3-((3S,4R,5R)-3-butyl-7-dimethylamino-3-ethyl-4-hydroxy-1,1-dioxo-2,3,4,5-tetrahydro-1H-benzo[b]thiepin-5-yl)-phenyl]-ureido}-3,5-dihydroxy-tetrahydro-pyran-2-ylmethyl)sulphate ethanolate, hydrate] the “Plasma total serum bile acids (SBA)” value [3] was “statistically significant reductions in SBA” and the “Plasma alanine aminotransferase (ALAT)” value [4] was “Neither LUM002 nor SC-435 caused statistically significant reductions”.
